{"source": "patent US20250172566A1", "about": "“SACCHARIDE SENSING SYSTEMS” (CARBOMETRICS LIMITED, priority 2022, published 2025)", "experiment": "Fluorescent solution phase glucose responsive assay (pH 7.4, 298 K)", "details": "medium B, Ex 470 nm, Emmax 520 nm", "method": "Fluorescence spectroscopy was performed on either a HORIBA Duetta or BMG Labtech CLARIOstar plus plate reader. Emission spectra were obtained using the appropriate excitation wavelength and at a temperature of either 298 or 310 K and at pH 7.4 unless otherwise stated. Data collection and analysis were performed using EzSpec software by HORIBA or CLARIOstar MARS software by BMG Labtech. Further analysis and processing were performed in Microsoft Excel.\nA solution of GBM and FIM at the required concentrations were created in the appropriate media. The emission spectrum of the assay was then acquired by exciting at the designated excitation wavelength to obtain the baseline emission intensity for the assay. Aliquots of 2 M D-glucose (in the same media) were then added to give the required final glucose concentrations (e.g. 15 μL of 2 M D-glucose in 3 mL gives a final D-glucose concentration of 10 mM) and the assay allowed to reach equilibration. The emission spectra were collected after each addition of D-glucose and compared to the original baseline emission, monitoring at the typical emission maximum (Emmax), and the percentage increase or decrease recorded. Emission spectra acquired on either a Horiba Duetta fluorometer or Clariostar plus plate reader.\nThe glucose responsive fluorescence emission for different combinations of glucose binding molecules (GBM) and fluorescent inhibitor molecules (FIM) at various concentrations and in various media was tested as described above. All results obtained at pH 7.4 and 298 K unless otherwise stated.\nAll results obtained at pH 7.4 and 298 K unless otherwise stated.\nTable 4 provides the composition of the assay media used as the code assigned to each media as used in Tables 1 to 3.", "data": [{"smiles": "CC(C)(C)OC(=O)N[C@@H](Cc1cn(CCCC[C@@H](C(=O)Nc2ccc(CCO[C@@H]3O[C@H](CO)[C@@H](O)[C@H](O)[C@H]3O)cc2)[N+](C)(C)C)nn1)C(=O)NCCOCCOCCOCCn1cc(CNC(=O)c2ccc3c(c2)C(=O)OC32c3ccc(O)cc3Oc3cc(O)ccc32)nn1", "note": "[FIM32]", "values": [{"measurement": "Change in Emmax for FIM at a particular D-glucose concentration", "setting": "5 mM D-glucose, GBM15 10 μM, FIM 1 μM", "result": 170, "unit": "%"}, {"measurement": "Change in Emmax for FIM at a particular D-glucose concentration", "setting": "5 mM D-glucose, GBM15 50 μM, FIM 0.5 μM", "result": 140, "unit": "%"}, {"measurement": "Change in Emmax for FIM at a particular D-glucose concentration", "setting": "5 mM D-glucose, GBM15 50 μM, FIM 5 μM", "result": 110, "unit": "%"}, {"measurement": "Change in Emmax for FIM at a particular D-glucose concentration", "setting": "5 mM D-glucose, GBM15 50 μM, FIM 10 μM", "result": 110, "unit": "%"}, {"measurement": "Change in Emmax for FIM at a particular D-glucose concentration", "setting": "5 mM D-glucose, GBM15 100 μM, FIM 1 μM", "result": 95, "unit": "%"}, {"measurement": "Change in Emmax for FIM at a particular D-glucose concentration", "setting": "5 mM D-glucose, GBM15 200 μM, FIM 2 μM", "result": 85, "unit": "%"}, {"measurement": "Change in Emmax for FIM at a particular D-glucose concentration", "setting": "5 mM D-glucose, GBM15 200 μM, FIM 5 μM", "result": 50, "unit": "%"}, {"measurement": "Change in Emmax for FIM at a particular D-glucose concentration", "setting": "5 mM D-glucose, GBM15 200 μM, FIM 10 μM", "result": 50, "unit": "%"}, {"measurement": "Change in Emmax for FIM at a particular D-glucose concentration", "setting": "10 mM D-glucose, GBM15 10 μM, FIM 1 μM", "result": 190, "unit": "%"}, {"measurement": "Change in Emmax for FIM at a particular D-glucose concentration", "setting": "10 mM D-glucose, GBM15 50 μM, FIM 0.5 μM", "result": 195, "unit": "%"}, {"measurement": "Change in Emmax for FIM at a particular D-glucose concentration", "setting": "10 mM D-glucose, GBM15 50 μM, FIM 5 μM", "result": 155, "unit": "%"}, {"measurement": "Change in Emmax for FIM at a particular D-glucose concentration", "setting": "10 mM D-glucose, GBM15 50 μM, FIM 10 μM", "result": 145, "unit": "%"}, {"measurement": "Change in Emmax for FIM at a particular D-glucose concentration", "setting": "10 mM D-glucose, GBM15 100 μM, FIM 1 μM", "result": 135, "unit": "%"}, {"measurement": "Change in Emmax for FIM at a particular D-glucose concentration", "setting": "10 mM D-glucose, GBM15 200 μM, FIM 2 μM", "result": 115, "unit": "%"}, {"measurement": "Change in Emmax for FIM at a particular D-glucose concentration", "setting": "10 mM D-glucose, GBM15 200 μM, FIM 5 μM", "result": 85, "unit": "%"}, {"measurement": "Change in Emmax for FIM at a particular D-glucose concentration", "setting": "10 mM D-glucose, GBM15 200 μM, FIM 10 μM", "result": 85, "unit": "%"}, {"measurement": "Change in Emmax for FIM at a particular D-glucose concentration", "setting": "20 mM D-glucose, GBM15 10 μM, FIM 1 μM", "result": 200, "unit": "%"}, {"measurement": "Change in Emmax for FIM at a particular D-glucose concentration", "setting": "20 mM D-glucose, GBM15 50 μM, FIM 0.5 μM", "result": 240, "unit": "%"}, {"measurement": "Change in Emmax for FIM at a particular D-glucose concentration", "setting": "20 mM D-glucose, GBM15 50 μM, FIM 5 μM", "result": 185, "unit": "%"}, {"measurement": "Change in Emmax for FIM at a particular D-glucose concentration", "setting": "20 mM D-glucose, GBM15 50 μM, FIM 10 μM", "result": 190, "unit": "%"}, {"measurement": "Change in Emmax for FIM at a particular D-glucose concentration", "setting": "20 mM D-glucose, GBM15 100 μM, FIM 1 μM", "result": 160, "unit": "%"}, {"measurement": "Change in Emmax for FIM at a particular D-glucose concentration", "setting": "20 mM D-glucose, GBM15 200 μM, FIM 2 μM", "result": 145, "unit": "%"}, {"measurement": "Change in Emmax for FIM at a particular D-glucose concentration", "setting": "20 mM D-glucose, GBM15 200 μM, FIM 5 μM", "result": 125, "unit": "%"}, {"measurement": "Change in Emmax for FIM at a particular D-glucose concentration", "setting": "20 mM D-glucose, GBM15 200 μM, FIM 10 μM", "result": 115, "unit": "%"}, {"measurement": "Change in Emmax for FIM at a particular D-glucose concentration", "setting": "40 mM D-glucose, GBM15 10 μM, FIM 1 μM", "result": 220, "unit": "%"}, {"measurement": "Change in Emmax for FIM at a particular D-glucose concentration", "setting": "40 mM D-glucose, GBM15 50 μM, FIM 0.5 μM", "result": 265, "unit": "%"}, {"measurement": "Change in Emmax for FIM at a particular D-glucose concentration", "setting": "40 mM D-glucose, GBM15 50 μM, FIM 5 μM", "result": 205, "unit": "%"}, {"measurement": "Change in Emmax for FIM at a particular D-glucose concentration", "setting": "40 mM D-glucose, GBM15 100 μM, FIM 1 μM", "result": 220, "unit": "%"}, {"measurement": "Change in Emmax for FIM at a particular D-glucose concentration", "setting": "40 mM D-glucose, GBM15 200 μM, FIM 2 μM", "result": 200, "unit": "%"}, {"measurement": "Change in Emmax for FIM at a particular D-glucose concentration", "setting": "40 mM D-glucose, GBM15 200 μM, FIM 5 μM", "result": 175, "unit": "%"}, {"measurement": "Change in Emmax for FIM at a particular D-glucose concentration", "setting": "40 mM D-glucose, GBM15 200 μM, FIM 10 μM", "result": 130, "unit": "%"}, {"measurement": "Change in Emmax for FIM at a particular D-glucose concentration", "setting": "60 mM D-glucose, GBM15 50 μM, FIM 0.5 μM", "result": 310, "unit": "%"}, {"measurement": "Change in Emmax for FIM at a particular D-glucose concentration", "setting": "60 mM D-glucose, GBM15 50 μM, FIM 5 μM", "result": 225, "unit": "%"}, {"measurement": "Change in Emmax for FIM at a particular D-glucose concentration", "setting": "60 mM D-glucose, GBM15 200 μM, FIM 2 μM", "result": 215, "unit": "%"}, {"measurement": "Change in Emmax for FIM at a particular D-glucose concentration", "setting": "60 mM D-glucose, GBM15 200 μM, FIM 5 μM", "result": 190, "unit": "%"}, {"measurement": "Change in Emmax for FIM at a particular D-glucose concentration", "setting": "60 mM D-glucose, GBM15 200 μM, FIM 10 μM", "result": 160, "unit": "%"}, {"measurement": "Change in Emmax for FIM at a particular D-glucose concentration", "setting": "80 mM D-glucose, GBM15 50 μM, FIM 5 μM", "result": 235, "unit": "%"}, {"measurement": "Change in Emmax for FIM at a particular D-glucose concentration", "setting": "80 mM D-glucose, GBM15 200 μM, FIM 5 μM", "result": 200, "unit": "%"}, {"measurement": "Change in Emmax for FIM at a particular D-glucose concentration", "setting": "80 mM D-glucose, GBM15 200 μM, FIM 10 μM", "result": 170, "unit": "%"}]}, {"smiles": "O=C(CNC(=O)[C@H](Cc1cn(CCOCCOCCOCCOc2ccc(CCO[C@@H]3O[C@H](CO)[C@@H](O)[C@H](O)[C@H]3O)cc2)nn1)NC(=O)CCCC[C@@H]1SC[C@@H]2NCN[C@@H]21)Nc1ccc2c(c1)C(=O)OC21c2ccc(O)cc2Oc2cc(O)ccc21", "note": "[FIM35]", "values": [{"measurement": "Change in Emmax for FIM at a particular D-glucose concentration", "setting": "20 mM D-glucose, GBM29 50 μM, FIM 1 μM", "result": 60, "unit": "%"}, {"measurement": "Change in Emmax for FIM at a particular D-glucose concentration", "setting": "20 mM D-glucose, GBM29 50 μM, FIM 1 μM, separate GBM and FIM components mixed with 0.25 molar equivalents of streptavidin tetramer prior to formulation of assay", "result": 40, "unit": "%"}]}, {"smiles": "C[N+](C)(C)[C@@H](CCCCNC(=O)[C@@H](N)CCCCn1cc(CNC(=O)c2ccc3c(c2)C2(OC3=O)c3ccc(N)c(S(=O)(=O)O)c3Oc3c2ccc(N)c3S(=O)(=O)O)nn1)C(=O)Nc1ccc(CCO[C@@H]2O[C@H](CO)[C@@H](O)[C@H](O)[C@H]2O)cc1", "note": "[FIM39]", "values": [{"measurement": "Change in Emmax for FIM at a particular D-glucose concentration", "setting": "5 mM D-glucose, GBM7 30 μM, FIM 1 μM", "result": 95, "unit": "%"}, {"measurement": "Change in Emmax for FIM at a particular D-glucose concentration", "setting": "10 mM D-glucose, GBM7 30 μM, FIM 1 μM", "result": 115, "unit": "%"}, {"measurement": "Change in Emmax for FIM at a particular D-glucose concentration", "setting": "20 mM D-glucose, GBM7 30 μM, FIM 1 μM", "result": 120, "unit": "%"}]}, {"smiles": "CC(C)(C)OC(=O)N[C@@H](Cc1cn(CCCC[C@@H](C(=O)NCC(CO[C@@H]2O[C@H](CO)[C@@H](O)[C@H](O)[C@H]2O)c2ccccc2)[N+](C)(C)C)nn1)C(=O)NCCOCCOCCn1cc(CNC(=O)c2ccc3c(c2)C(=O)OC32c3ccc(N)c(S(=O)(=O)[O-])c3Oc3c2ccc(N)c3S(=O)(=O)O)nn1", "note": "(some centres unmarked) [FIM50]", "values": [{"measurement": "Change in Emmax for FIM at a particular D-glucose concentration", "setting": "5 mM D-glucose, GBM7 50 μM, FIM 2 μM", "result": 140, "unit": "%"}, {"measurement": "Change in Emmax for FIM at a particular D-glucose concentration", "setting": "5 mM D-glucose, GBM15 100 μM, FIM 2 μM", "result": 50, "unit": "%"}, {"measurement": "Change in Emmax for FIM at a particular D-glucose concentration", "setting": "10 mM D-glucose, GBM7 50 μM, FIM 2 μM", "result": 180, "unit": "%"}, {"measurement": "Change in Emmax for FIM at a particular D-glucose concentration", "setting": "10 mM D-glucose, GBM15 100 μM, FIM 2 μM", "result": 70, "unit": "%"}, {"measurement": "Change in Emmax for FIM at a particular D-glucose concentration", "setting": "20 mM D-glucose, GBM7 50 μM, FIM 2 μM", "result": 200, "unit": "%"}, {"measurement": "Change in Emmax for FIM at a particular D-glucose concentration", "setting": "20 mM D-glucose, GBM15 100 μM, FIM 2 μM", "result": 90, "unit": "%"}]}]}
